Experiments:
[1] = In vitro metabolic stability in cryopreserved human hepatocytes; assay type: in vitro ADME; conditions: 1 μM test compound
Description: Investigation of In Vitro Metabolic Stability in Cryopreserved Human Hepatocytes (Including Calculation of Hepatic In Vivo Blood Clearance (CL) and Maximal Oral Bioavailability (Fmax))
Cryopreserved Hepatocytes (e.g. purchased from Celsis InVitroTechnologies) were briefly thawed, washed with 45 mL pre-warmed in in vitro GRO HT medium and centrifuged for 5 min at 50×g. The cell pellet was resuspended in 5 ml of Krebs-Henseleit […] (KHB). Cell viability was determined by trypan blue exclusion.
For the metabolic stability assay liver cells were distributed in WME containing 5% FCS to glass vials at a density of 1.0×10^6 vital cells/ml. The test compound was added to a final concentration of 1 μM. During incubation, the hepatocyte suspensions were continuously shaken at 580 rpm and aliquots were taken at 2, 8, 16, 30, 45 and 90 min, to which equal volumes of cold methanol were immediately added. Samples were frozen at −20° C. over night, after subsequently centrifuged for 15 minutes at 3000 rpm and the supernatant was analyzed with an Agilent 1290 HPLC-system with LCMS/MS detection.
The half-life of a test compound was determined from the concentration-time plot. From the half-life the intrinsic clearances were calculated. […] The hepatic in vivo blood clearance (CL) and the maximal oral bioavailability (Fmax) was calculated.

[2] = target: T1, PDE3A(677-1141) (Homo sapiens, UniProt Q14432); test: Differential scanning fluorimetry (DSF) binding to purified PDE3A catalytic domain; conditions: 5 μM PDE3A, 100 μM compound
T1 construct: purified PDE3A catalytic domain, PDE3A(677-1141)
Description: Binding buffer: 20 mM Hepes pH 7.4, 100 μM TCEP, 1 mM MgCl2, 150 mM NaCl.

[3] = target: T2, PDE3A (Homo sapiens, UniProt Q14432); test: Linker-affinity purification of molecular target of DNMDP and immunoblotting (competition); assay type: binding; conditions: HeLa cell lysate, 10 μM compound
T2 construct: endogenous in cells; host or cells: HeLa
Description: To identify the molecular target of DNMDP, an affinity purification was performed using an (R)-des-nitro-DNMDP solid-phase tethered linker analogue (FIG. 10A) incubated with HeLa cell lysate. […] It was competed for the molecular target by adding either an excess of trequinsin or separate enantiomers of DNMDP, where only the (R)-enantiomer was cytotoxic. […] Binding of PDE3A to the linker analogue was blocked by both trequinsin and (R)-DNMDP, but not by the non-cytotoxic enantiomer (S)-DNMDP (FIG. 9C). Thus both trequinsin and (R)-DNMDP prevented the binding of PDE3A to the tethered DNMDP analogue, and it was concluded that both molecules bind PDE3A directly.
HeLa cells were washed with ice-cold PBS before lysed with NP-40 lysis buffer (150 mM NaCl, 10% glycerol, 50 mM Tris-Cl pH 8.0, 50 mM MgCl2, 1% NP-40) supplemented with EDTA-free protease inhibitors (Roche) and phosphatase inhibitor mixtures I and II (Calbiochem). Cell lysates were incubated on ice for at least 2 minutes and subsequently centrifuged for 10 minutes at 4° C. at 15,700×g after which the supernatant was quantified using BCA protein assay kit (Pierce). […] total HeLa cell lysate was incubated with 3 μl Affi-Gel 102 resin (BioRad) coupled to affinity linker DNMDP-2L in a total volume of 400 μl for four hours. Prior to incubation, indicated compounds were added to affinity purifications at a final concentration of 10 μM. Samples were washed three times with lysis buffer containing corresponding compound concentrations of 10 μM. Proteins bound to Affi-Gel 102 resin were reduced, denatured, and separated using Tris-Glycine gels (Novex) and transferred to nitrocellulose membranes using the iBlot transfer system (Novex). Membranes were incubated overnight at 4° C. with primary antibodies against PDE3A (1:1000, Bethyl). Incubation with secondary antibodies (1:20,000, LI-COR Biosciences) for two hours at room temperature and subsequent detection (Odyssey Imaging System, LI-COR Biosciences) were performed according to manufacturer's recommendations.

[4] = test system: HeLa cells; test: Compound sensitivity testing in cell lines (cell viability, 48 h); assay type: cell-based, human
Description: 1500 NCI-H1734 or 1000 A549 cells were plated in a 384-well plate in 40 μl of RPMI supplemented with 10% Fetal Bovine Serum and 1% Pen/Strep. 24 hours after plating, a compound-library of 1924 small molecules was added at a concentration of 10 μM. Staurosporine was used a positive control for cytotoxicity at a concentration of 10 μM, and DMSO was used a negative control at a concentration of 1%. All compounds were incubated for 48 hours with indicated small molecules. After 48 hours, 384-well plates were removed from the incubator and allowed to cool to room temperature for 20 minutes. Cell viability was assessed by adding 40 μl of a 25% CELLTITERGLO® (Promega) in PBS with a THERMO COMBI™ or multichannel-pipette and incubated for 10 minutes. The luminescence signal was read using a Perkin-Elmer EnVision. Viability percentage was calculated by normalizing to DMSO controls.
1000 HeLa (DMEM), 1000 A549 (RPMI), 500 MCF-7 (DMEM), 4000 PC3 (F12-K), 1000 NCI-H2122 (RPMI) or 1500 NCI-H1563 (RPMI) cells were plated in a 384-well plate in 40 μl of corresponding growth media supplemented with 10% Fetal Bovine Serum. 24 hours after plating, indicated compounds were added at indicated concentrations and incubated for 48 hours. Cell viability was assessed as described in Compound library screening in NCI-H1734 and A549 cell lines.

[5] = test system: HeLa cells; test: Follow-up dose-dependent rescue of DNMDP cytotoxicity (competition with DNMDP); assay type: cell-based, human; conditions: co-treatment with DNMDP, 48 h; for rescue of DNMDP cytotoxicity / competition (in words): up to 10 μM
[6] = test system: HeLa cells; test: Bioactives screen to rescue DNMDP induced cytotoxicity; assay type: cell-based, human; conditions: 20 μM bioactive + 30 nM DNMDP, 48 h
Description: Most importantly, PDE4 competitive inhibitors and PDE4 allosteric modulators with similar IC50s for cAMP hydrolysis in vitro had different cellular activities and safety profiles in animal studies (Burgin et al., Nat Biotechnol 28, 63-70, 2010). To evaluate whether PDE inhibitors or other small molecules compete with DNMDP, the PHARMAKON 1600 collection of 1600 bioactive compounds (PHARMAKON 1600 is a unique collection of 1600 known drugs from US and International Pharmacopeia) was screened to identify compounds that were able to rescue cell death induced by DNMDP. HeLa cells were co-treated with 30 nM DNMDP (the EC70 concentration) and 20 μM of each bioactive compound. Cell viability after 48-hour treatment was assessed by ATP […] as described earlier.
Bioactives Screen to Rescue DNMDP Induced Cytotoxicity 1000 HeLa cells were plated in a 384-well plate in 40 μl of DMEM supplemented with 10% Fetal Bovine Serum and 1% Pen/Strep. 24 hours after plating, a compound-library of 1600 bioactive molecules (Pharmacon) was added at a concentration of 20 μM. In parallel to bioactive compound incubation, DNMDP was added to a final concentration of 30 nM and incubated for 48 hours. Cell viability was assessed as described in Compound library screening in NCI-H1734 and A549 cell lines. Linker-Affinity Purification of Molecular Target of DNMDP and Immunoblotting

T1 sequence (Q14432 677-1141): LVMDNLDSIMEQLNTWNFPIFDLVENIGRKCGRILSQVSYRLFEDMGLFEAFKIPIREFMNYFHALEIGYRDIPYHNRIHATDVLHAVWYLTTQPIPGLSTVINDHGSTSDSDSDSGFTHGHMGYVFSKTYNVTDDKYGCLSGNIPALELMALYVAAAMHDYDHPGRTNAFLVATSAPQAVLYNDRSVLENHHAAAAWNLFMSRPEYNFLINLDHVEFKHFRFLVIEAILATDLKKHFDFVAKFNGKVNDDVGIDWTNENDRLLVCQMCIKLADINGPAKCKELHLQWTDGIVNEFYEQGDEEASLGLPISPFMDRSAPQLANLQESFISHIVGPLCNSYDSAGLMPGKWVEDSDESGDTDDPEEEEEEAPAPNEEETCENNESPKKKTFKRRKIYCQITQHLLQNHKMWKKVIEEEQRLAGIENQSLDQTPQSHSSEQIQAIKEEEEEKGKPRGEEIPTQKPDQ
T2 sequence (Q14432 whole entry): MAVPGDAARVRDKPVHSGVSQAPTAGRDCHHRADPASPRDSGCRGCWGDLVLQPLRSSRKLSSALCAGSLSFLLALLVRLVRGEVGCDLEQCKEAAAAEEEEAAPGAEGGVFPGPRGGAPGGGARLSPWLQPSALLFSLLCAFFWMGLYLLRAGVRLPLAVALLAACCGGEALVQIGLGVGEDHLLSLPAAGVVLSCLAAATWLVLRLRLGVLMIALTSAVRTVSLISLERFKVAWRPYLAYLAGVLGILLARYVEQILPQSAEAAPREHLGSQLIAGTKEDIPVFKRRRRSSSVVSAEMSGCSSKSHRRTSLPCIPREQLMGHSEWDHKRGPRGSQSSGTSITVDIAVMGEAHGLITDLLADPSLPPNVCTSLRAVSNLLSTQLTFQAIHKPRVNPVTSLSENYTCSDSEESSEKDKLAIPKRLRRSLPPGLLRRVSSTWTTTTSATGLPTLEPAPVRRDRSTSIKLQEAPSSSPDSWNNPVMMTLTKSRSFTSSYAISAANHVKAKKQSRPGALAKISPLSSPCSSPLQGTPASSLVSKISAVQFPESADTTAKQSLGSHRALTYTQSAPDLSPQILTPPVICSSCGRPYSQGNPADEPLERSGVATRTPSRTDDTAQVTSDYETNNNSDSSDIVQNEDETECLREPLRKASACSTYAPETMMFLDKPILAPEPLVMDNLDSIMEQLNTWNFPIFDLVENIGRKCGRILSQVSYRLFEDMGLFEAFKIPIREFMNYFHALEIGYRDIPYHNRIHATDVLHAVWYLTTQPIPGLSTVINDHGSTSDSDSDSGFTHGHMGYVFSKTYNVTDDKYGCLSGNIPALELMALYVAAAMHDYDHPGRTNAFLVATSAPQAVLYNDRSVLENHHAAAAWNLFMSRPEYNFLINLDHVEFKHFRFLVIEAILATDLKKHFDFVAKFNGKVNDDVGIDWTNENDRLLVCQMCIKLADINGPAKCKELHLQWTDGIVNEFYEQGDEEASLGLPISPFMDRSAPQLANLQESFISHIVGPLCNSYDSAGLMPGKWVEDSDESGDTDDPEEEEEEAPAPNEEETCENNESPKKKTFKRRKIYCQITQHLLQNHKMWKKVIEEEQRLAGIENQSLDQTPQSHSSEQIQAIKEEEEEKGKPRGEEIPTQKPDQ

| Tm [2] [°C] | blocking of PDE3A binding to the tethered linker analogue [3] | SMILES | rescue of DNMDP cytotoxicity / competition (in words) [5] | also measured |
| --- | --- | --- | --- | --- |
|  | blocked | CCN(CC)c1ccc(C2=NNC(=O)C[C@H]2C)cc1[N+](=O)[O-] [(R)-DNMDP, (R)-6-(4-(diethylamino)-3-nitrophenyl)-5-methyl-4,5-dihydropyridazin-3(2H)-one] |  |  |
|  | not | CCN(CC)c1ccc(C2=NNC(=O)C[C@@H]2C)cc1[N+](=O)[O-] [(S)-DNMDP] |  |  |
| 56.6 ± 0.0 |  | O=C1CN2Cc3c(ccc(Cl)c3Cl)N=C2N1 [Anagrelide, 6,7-dichloro-1,5-dihydroimidazo (2,1-b)quinazolin-2(3H)-one, reference compound] |  |  |
| 66.2 ± 0.0 | blocked | COc1cc2c(cc1OC)-c1c/c(=N\c3c(C)cc(C)cc3C)n(C)c(=O)n1CC2 [Trequinsin, 9,10-dimethoxy-3-methyl-2-(2,4,6-trimethylphenyl)imino-6,7-dihydropyrimido[6,1-a]isoquinolin-4-one, reference compound] |  | effect on HeLa cell viability (in words) [4]: did not affect HeLa cell viability in any detectable way; EC50 ([5]; Homo sapiens, read-out: RC50 (the concentration at which it achieved 50% rescue)): < 1 nM |

The next lines start with the compound.

| SMILES | Tm [2] [°C] | blocking of PDE3A binding to the tethered linker analogue [3] | rescue of DNMDP cytotoxicity / competition (in words) [5] | also measured |
| --- | --- | --- | --- | --- |
| C[C@@H]1CC(=O)NN=C1c1ccc(N2CCOCC2)c(F)c1 (single isomer, unassigned) [Compound 3] | 59.0 ± 0.0 |  |  | mean metabolic stability (Fmax) [1]: 49%; ΔTm at 100 µM [2]: 6.6 °C |
| CN(C(=O)CCCOc1ccc2[nH]c(=O)ccc2c1)C1CCCCC1 [cilostamide, N-cyclohexyl-N-methyl-4-[(2-oxo-1H-quinolin-6-yl)oxy]butanamide] |  |  | able to rescue DNMDP cytotoxicity in a dose-dependent manner |  |
| O=C1CCc2cc(OCCCCc3nnnn3C3CCCCC3)ccc2N1 [cilostazol, 6-[4-(1-cyclohexyl-1H-tetrazol-5-yl)butoxy]-3,4-dihydro-2(1H)-quinolinone] |  |  |  | rescue of cell death induced by DNMDP (rank in screen) [6]: three most potent compounds |
| CC(C)C(=O)c1c(C(C)C)nn2ccccc12 [idubulast] |  |  | not effective competitors |  |
| Cc1[nH]c(=O)c(C#N)cc1-c1ccncc1 [milrinone, 2-methyl-6-oxo-1,6-dihydro-3,4′-bipyridine-5-carbonitrile] |  |  | able to rescue DNMDP cytotoxicity in a dose-dependent manner | rescue of cell death induced by DNMDP (rank in screen) [6]: three most potent compounds |
| CCCc1nn(C)c2c(=O)[nH]c(-c3cc(S(=O)(=O)N4CCN(C)CC4)ccc3OCC)nc12 [sildenafil, 1-[4-ethoxy-3-(6,7-dihydro-1-methyl-7-oxo-3-propyl-1H-pyrazolo[4,3-d]pyrimidin-5-yl)phenylsulfonyl]-4-methylpiperazine] |  |  | not effective competitors |  |
